Test results: patent US8507219B2, “Method of treating inflammation with statins” (MUSC Foundation for Research Development, priority 1997, dated 2013)
“And” between values parts separate entries of the source, which are not always exact repeats. Equal entries are not always repeated. Where two headings read alike, the source gives them in different places.

Columns and labels:
[1] = test system: NO production in rat resident macrophages; experiment: LPS-/cytokine-induced NO production (nitrite) in rat resident peritoneal macrophages; format: cell-based
[2] = test system: TNF-α production in rat primary astrocytes; experiment: LPS-induced TNF-α production (ELISA) in rat primary astrocytes; format: cell-based
Description: (§1) Determination of TNF-α and IL-1β in culture supernatants Cells were stimulated with LPS in serum-free media for 24 h in the presence or absence of forskolin or rolipram, and concentrations of TNF-α and IL-1β were measured in culture supernatants by using high-sensitivity enzyme-linked immunosorbent assay (R&D Systems, USA) according to the manufacturer's instructions.

[3] = test system: IL-1β production in rat primary astrocytes; experiment: LPS-induced IL-1β production (ELISA) in rat primary astrocytes; format: cell-based
Description: as §1

[4] = test system: IL-6 production in rat primary astrocytes; experiment: LPS-induced IL-6 production (ELISA) in rat primary astrocytes; format: cell-based
[5] = test system: IL-1β production in rat macrophages; experiment: LPS-induced IL-1β production (ELISA) in rat macrophages; format: cell-based
[6] = test system: IL-6 production in rat macrophages; experiment: LPS-induced IL-6 production (ELISA) in rat macrophages; format: cell-based
[7] = test system: control human skin fibroblasts; experiment: β-oxidation of lignoceric acid in control human skin fibroblasts; format: cell-based
[8] = test system: cultured skin fibroblasts of X-ALD; experiment: β-oxidation of lignoceric acid in cultured skin fibroblasts of X-ALD; format: cell-based, human
[9] = test system: cultured skin fibroblasts of X-ALD; experiment: VLCFA ratios (C26:0/C22:0, C24:0/C22:0) in X-ALD skin fibroblasts; format: cell-based, human; design: C24:0/C22:0: concentration or dose not given beside the values
EAE in female Lewis rats = experiment: Experimental allergic encephalomyelitis (EAE), clinical score; format: in vivo
Description: Rats were induced with EAE by injecting intradermally 50 μg of myelin basic protein (MBP) per animal emulsified in complete Freund's adjuvant (CFA) into the medial footpad of each hind leg on day 1 followed by a booster injection on the 7th day under ether anesthesia. Clinical symptoms in these rats manifest as an ascending paralysis resulting in death in most animals. The signs of EAE were scored as: (0) normal; (1) piloerection; […] (4) paraplegia; and (5) moribund. […] One group of animals induced for EAE was left untreated while another group of animals was not induced for EAE and used as the control group.

[10] = test system: TNF-α production in rat resident macrophages; experiment: LPS-/IFN-γ-induced TNF-α production (ELISA) in rat macrophages; format: cell-based
iNOS = experiment: Immunofluorescence of iNOS in brain sections of EAE rats; format: in vivo, Lewis rats; conditions: rat, in vivo, ip
Description: One group of animals induced for EAE was left untreated while another group of animals was not induced for EAE and used as the control group.
Immunohistochemistry Brains were fixed in 10% buffered formalin (Stephens Scientific, Riverdale, N.J.). The tissues were embedded in paraffin and sectioned at 4 μm. Sections were then stained for various cytokines and cell markers as described below. For single-label immunohistochemistry, sections were incubated with either anti-iNOS antibody (1:100, rabbit polyclonal, Calbiochem, LaJolla, Calif.) or anti-TNF-α antibody (1:100, rabbit polyclonal, Genzyme, Cambridge, Mass.) or anti-IFN-γ antibody (1:200, rabbit polyclonal, Biosource International, Camarillo, Calif.) essentially as described for other antibodies (Hooper et al., 1997). The tissue sections were further incubated with FITC conjugated anti-rabbit IgG (1:100, Sigma, St. Louis, Mo.), mounted with mounting media (EMS) and analyzed by immunofluorescence microscopy (Olympus) using Adobe photoshop software. For immunofluorescent double-labeling, sections were incubated first with anti-iNOS (1:100) followed by macrophage marker ED1 (1:100, mouse monoclonal, Biosource International, Camarillo, Calif.). Anti-iNOS was visualized using TRITC conjugated anti-rabbit IgG—(1:100, Sigma, St. Louis, Mo.) and ED1 using FITC conjugated anti-mouse IgG (1:100, Sigma, St. Louis, Mo.). […]

[11] = Macrophages, 10 μM lovastatin or 5 mM NaPA 8 h, then LPS 1.0 μg/ml, 24 h
[12] = Astrocytes, 10 μM lovastatin or 5 mM NaPA 8 h, then LPS 1.0 μg/ml, 24 h

Structure (SMILES): CC[C@H](C)C(=O)O[C@H]1C[C@@H](C)C=C2C=C[C@H](C)[C@H](CC[C@@H]3C[C@@H](O)CC(=O)O3)[C@H]21 [Lovastatin]
- Production of NO [1, 11]: 7.2 ± 0.9 nmol/24 h/mg protein
- Production of TNF-α [2, 12]: 0.3 ± 0.05 ng/24 h/mg protein
- Production of IL-1β [3, 12]: 0.8 ± 0.1 ng/24 h/mg protein
- Production of IL-6 [4, 12]: 6.9 ± 0.9 ng/24 h/mg protein
- Production of IL-1β [5, 11]: 2.3 ± 0.3 ng/24 h/mg protein
- Production of IL-6 [6, 11]: 8.3 ± 0.6 ng/24 h/mg protein
- Lignoceric acid β-oxidation ([7]; 72 h, Lovastatin 5 μM, Mevastatin 5 μM, NaPA 5 mM, Control 570.2 ± 52.3): 945.7 ± 105.6 pmol/h/mg protein
- stimulation of lignoceric acid β-oxidation ([8]; 72 h, lovastatin 5 μM, NaPA 5 mM (highest doses found to stimulate)): 70%
- Lignoceric acid β-oxidation ([8]; ALDS2, 15 days, 5 μM lovastatin, 5 mM NaPA or the combination of 2 μM lovastatin and 2 mM NaPA, Control 142.7 ± 15.7): 223.5 ± 24.1 pmol/h/mg protein
- Lignoceric acid β-oxidation ([8]; ALDS2, 15 days, 5 μM lovastatin, 5 mM NaPA or the combination of 4 μM forskolin and 2 mM NaPA, Control 142.7 ± 15.7): 223.5 ± 24.1 pmol/h/mg protein
- Lignoceric acid β-oxidation ([8]; ALDS3, 15 days, 5 μM lovastatin, 5 mM NaPA or the combination of 2 μM lovastatin and 2 mM NaPA, Control 122.3 ± 11.7): 201.3 ± 22.3 pmol/h/mg protein
- Lignoceric acid β-oxidation ([8]; ALDS3, 15 days, 5 μM lovastatin, 5 mM NaPA or the combination of 4 μM forskolin and 2 mM NaPA, Control 122.3 ± 11.7): 201.3 ± 22.3 pmol/h/mg protein
- Lignoceric acid β-oxidation ([8]; ALDS4, 15 days, 5 μM lovastatin, 5 mM NaPA or the combination of 2 μM lovastatin and 2 mM NaPA, Control 118.5 ± 12.6): 192.8 ± 20.5 pmol/h/mg protein
- Lignoceric acid β-oxidation ([8]; ALDS4, 15 days, 5 μM lovastatin, 5 mM NaPA or the combination of 4 μM forskolin and 2 mM NaPA, Control 118.5 ± 12.6): 192.8 ± 20.5 pmol/h/mg protein
- Lignoceric acid β-oxidation ([8]; ALDS5, 15 days, 5 μM lovastatin, 5 mM NaPA or the combination of 2 μM lovastatin and 2 mM NaPA, Control 154.2 ± 14.2): 248.2 ± 26.2 pmol/h/mg protein
- Lignoceric acid β-oxidation ([8]; ALDS5, 15 days, 5 μM lovastatin, 5 mM NaPA or the combination of 4 μM forskolin and 2 mM NaPA, Control 154.2 ± 14.2): 248.2 ± 26.2 pmol/h/mg protein
- Lignoceric acid β-oxidation ([8]; ALDS6, 15 days, 5 μM lovastatin, 5 mM NaPA or the combination of 2 μM lovastatin and 2 mM NaPA, Control 132.4 ± 15.9): 218.3 ± 19.8 pmol/h/mg protein
- Lignoceric acid β-oxidation ([8]; ALDS6, 15 days, 5 μM lovastatin, 5 mM NaPA or the combination of 4 μM forskolin and 2 mM NaPA, Control 132.4 ± 15.9): 218.3 ± 19.8 pmol/h/mg protein
- C24:0/C22:0 [9]: 1.25 ± 0.15 and 1.28 ± 0.21 and 1.31 ± 0.18 and 1.26 ± 0.16 and 1.29 ± 0.02
- protection against EAE disease (EAE in female Lewis rats; treatment from first day of immunization): significantly delayed the onset of first of clinical symptom
- Production of TNF-α [10, 11]: 1.2 ± 0.1 ng/24 h/mg protein

Structure (SMILES): O=C([O-])Cc1ccccc1.[Na+] [NaPA, sodium salt of phenylacetic acid]
- Production of NO [1]: 9.5 ± 0.7 nmol/24 h/mg protein
- Production of TNF-α [2]: 0.4 ± 0.06 ng/24 h/mg protein
- Production of IL-1β [3]: 1.1 ± 0.2 ng/24 h/mg protein
- Production of IL-6 [4]: 7.6 ± 0.8 ng/24 h/mg protein
- Production of IL-1β [5]: 3.1 ± 0.4 ng/24 h/mg protein and 3.1 ± .4 ng/24 h/mg protein
- Production of IL-6 [6]: 10.2 ± 1.4 ng/24 h/mg protein
- Lignoceric acid β-oxidation [7]: 826.2 ± 87.2 pmol/h/mg protein
- Lignoceric acid β-oxidation [8]: 211.5 ± 22.6 pmol/h/mg protein and 189.7 ± 21.2 pmol/h/mg protein and 183.2 ± 17.3 pmol/h/mg protein and 178.9 ± 18.3 pmol/h/mg protein and 202.5 ± 17.4 pmol/h/mg protein
- stimulation of lignoceric acid β-oxidation [8]: 40%
- ratios of C26:0/C22:0 and C24:0/C22:0 / level of VLCFA [9]: almost to the normal level after 15 days of treatment
- protection against EAE disease (EAE in female Lewis rats; rat, in vivo): protected the rats from the severity of the disease
- expression of iNOS in EAE brain (iNOS): blocked the ability of MBP to induce the expression of iNOS
- Production of TNF-α [10]: 1.7 ± 0.2 ng/24 h/mg protein
